Results published in patent US20250145600A1, “2-((4-((S)-2-(4-CHLORO-2-FLUOROPHENYL)-2-METHYLBENZO[D][1,3]DIOXOL-4-YL)PIPERIDIN-1-YL)METHYL)-1-(((S)-OXETAN-2-YL)METHYL)-1H-IMIDAZOLE DERIVATIVES AS ACTIVATORS OF THE GLP1 RECEPTOR FOR THE TREATMENT OF OBESITY” (Novartis AG, priority 2022, published 2025).

Target: human GLP1R (hGLP1R) (Homo sapiens, UniProt P43220)
Test: Human GLP1R cAMP agonist assay (GloSensor cAMP Assay)
Type: cell-based
Conditions: HEK293-SNAP-hGLP1R-GloSensor cells; for Emax: cAMP activity as percent of GLP1 (7-36) EC100 control; for EC50: intracellular cAMP, 12 min at rt
Procedure: Compounds of formula (I) according to the invention were tested in the following cellular assays that measure the intracellular cAMP concentration, beta-arrestin recruitment and receptor internalization. The cAMP is generated by the activation of GLP1R. The extent to which the GLP1R is internalized into the cell and away from the plasma membrane following activation is also shown in Table 2. EC50 for each assay is defined as the concentration of the compound that leads to half of the maximum response (after baseline correction). Emax is defined as the maximum response observed for the test compound, normalized to the maximum response observed for the endogenous ligand (GLP1(7-36)) to GLP1R.
Human GLP1R cAMP Agonist Assay
The agonist activity of compounds was determined using the GloSensor™ cAMP Assay (Promega Corp.), which measures changes in the intracellular concentration of cAMP after ligand activation of GPCRs. The assay uses a biosensor encoded by pGloSensor™-22F cAMP plasmid (Promega, cat #E2301) with cAMP binding domains fused to a mutant form of Photinus pyralis luciferase. Binding to cAMP causes conformational changes that promote large increases in light output, which can be measured by a luminescence detector. HEK293-SNAP-hGLP1R-GloSensor cells stably overexpressing the human GLP1 receptor (hGLP1R) and pGloSensor™-22F were seeded in white 384-well poly-D-Lysine coated plates (Greiner Bio One, cat #781945) in CO2-independent media (Gibco cat #18045-088 with 1.0% FBS, 2 mM L-glutamine, penicillin and streptomycin) and incubated overnight at 37° C., 5% CO2 with humidity. The assay was started the following morning by adding an equal volume of CO2-independent media containing 4% v/v dilution of the GloSensor substrate (Promega, cat #E1291) to all wells. The cell plate was incubated at rt for 2 h in the dark. The Biomek 7 (Beckman Coulter) instrument was used for the liquid handling steps. To generate duplicate dose response curves, 3-fold serially diluted compounds were added in to the cell assay plate to a final volume of 60 μL with final concentrations ranging from 30 μM through 0.06 μM in CO2-independent media containing 0.1% BSA, 0.5 mM IBMX and 0.4% DMSO. In the same plate and assay buffer as the tested compounds, were EC100 control wells containing GLP1 (7-36) peptide (Bachem, cat #H-6795) at a final concentration of 2 nM and also EC0 control wells containing no peptide. This plate was incubated at rt in the dark for 12 min after adding the compounds to the cells. Luminescence was then measured with an Envision 2104 Multilabel reader with “TRF Light Unit, 337 nm” (PerkinElmer) using the Ultra-Sensitive protocol setting “384-well US luminescence detector” with the 384-well luminescence aperture, 0.1 seconds per well. cAMP activity was calculated as percent of the GLP1 (7-36) EC100 control wells: [(sample signal−mean EC0 signal)/(mean EC100 of GLP1 (7-36) signal−mean EC0 signal)}*100. Curve fitting for EC50 determinations was performed in the Helios module of the software package DAVID. The 4-parameter logistic model, Hill slope was used: y=Ainf+(A0−Ainf)/(1+(x/AC50)^Hill Slope) where y is the functional response; x is the compound concentration; A0 is the minimum value (at 0 dose); Ainf is the maximum value (at infinite dose); AC50 corresponds to the point of inflection (i.e. the point on the sigmoid shaped curve halfway between A0 and Ainf). The EC50 value was represented by the AC50 value calculated from Helios in μM. Emax is the maximal activity detected within the concentration range, derived from the fitted curve.
327 μL of Opti-MEM medium (Gibco, cat #31985-062) were mixed with 12 μL of FuGENE® HD (Promega, cat #E2311) and incubated at rt for 5 min. Then 8.2 μL (4 μg, 0.485 μg/μL solution) of pSNAP-hGLP1R plasmid (Cisbio, cat #PSNAP-GLP1) encoding human GLP1R (NCBI Reference Sequence: NM_002062.3) fused with Cisbio's SNAP tag was added in to the Fugene HD/Opti-MEM mix, and incubated at rt for 20 min. […]

Chain of human GLP1R (hGLP1R) (P43220 24-463): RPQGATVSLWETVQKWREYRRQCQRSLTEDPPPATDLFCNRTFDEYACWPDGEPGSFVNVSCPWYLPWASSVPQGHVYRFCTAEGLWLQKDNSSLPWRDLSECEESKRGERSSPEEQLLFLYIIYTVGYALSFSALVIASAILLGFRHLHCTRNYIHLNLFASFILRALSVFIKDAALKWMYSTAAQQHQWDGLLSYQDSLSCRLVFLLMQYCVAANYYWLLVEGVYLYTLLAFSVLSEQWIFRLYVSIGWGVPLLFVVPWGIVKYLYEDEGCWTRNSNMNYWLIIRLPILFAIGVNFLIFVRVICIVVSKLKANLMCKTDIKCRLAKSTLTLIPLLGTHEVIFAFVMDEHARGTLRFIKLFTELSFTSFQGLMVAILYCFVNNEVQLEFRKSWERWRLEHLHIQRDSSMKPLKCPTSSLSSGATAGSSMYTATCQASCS

Structure (SMILES) | Emax | EC50
CCc1nc(CN2CCC(c3cccc4c3O[C@@](C)(c3ccc(Cl)cc3F)O4)CC2)n(C[C@@H]2CCO2)c1-c1nc(C(=O)O)co1 [Compound C-5, 2-(2-((4-((S)-2-(4-chloro-2-fluorophenyl)-2-methylbenzo[d][1,3]dioxol-4-yl)piperidin-1-yl)methyl)-4-ethyl-1-(((S)-oxetan-2-yl)methyl)-1H-imidazol-5-yl)oxazole-4-carboxylic acid] | 123% | 0.0418 nM
Cc1c(-c2nc(C(F)(F)F)c(C(=O)O)o2)nc(CN2CCC(c3cccc4c3O[C@@](C)(c3ccc(Cl)cc3F)O4)CC2)n1C[C@@H]1CCO1 [Compound C-14, 2-(2-((4-((S)-2-(4-chloro-2-fluorophenyl)-2-methylbenzo[d][1,3]dioxol-4-yl)piperidin-1-yl)methyl)-5-methyl-1-(((S)-oxetan-2-yl)methyl)-1H-imidazol-4-yl)-4-(trifluoromethyl)oxazole-5-carboxylic acid] | 104% | 0.492 nM
Cc1nc(CN2CCC(c3cccc4c3O[C@@](C)(c3ccc(Cl)cc3F)O4)CC2)n(C[C@@H]2CCO2)c1-c1nc(C(=O)O)co1 [Compound C-9, 2-(2-((4-((S)-2-(4-chloro-2-fluorophenyl)-2-methylbenzo[d][1,3]dioxol-4-yl)piperidin-1-yl)methyl)-4-methyl-1-(((S)-oxetan-2-yl)methyl)-1H-imidazol-5-yl)oxazole-4-carboxylic acid] | 107% | 0.103 nM
Cc1c(-c2cnc(C(=O)O)o2)nc(CN2CCC(c3cccc4c3O[C@@](C)(c3ccc(Cl)cc3F)O4)CC2)n1C[C@@H]1CCO1 [Compound C-16, 5-(2-((4-((S)-2-(4-chloro-2-fluorophenyl)-2-methylbenzo[d][1,3]dioxol-4-yl)piperidin-1-yl)methyl)-5-methyl-1-(((S)-oxetan-2-yl)methyl)-1H-imidazol-4-yl)oxazole-2-carboxylic acid] | 108% | 0.171 nM
Cc1nc(CN2CCC(c3cccc4c3O[C@@](C)(c3ccc(Cl)cc3F)O4)CC2)n(C[C@@H]2CCO2)c1-c1coc(C(=O)O)n1 [Compound C-20, 4-(2-((4-((S)-2-(4-chloro-2-fluorophenyl)-2-methylbenzo[d][1,3]dioxol-4-yl)piperidin-1-yl)methyl)-4-methyl-1-(((S)-oxetan-2-yl)methyl)-1H-imidazol-5-yl)oxazole-2-carboxylic acid] | 112% | 0.24 nM
CCc1nc(CN2CCC(c3cccc4c3O[C@@](C)(c3ccc(Cl)cc3F)O4)CC2)n(C[C@H]2CCO2)c1-c1nc(C(=O)O)co1 [Compound C-7, 2-(2-((4-((S)-2-(4-chloro-2-fluorophenyl)-2-methylbenzo[d][1,3]dioxol-4-yl)piperidin-1-yl)methyl)-4-ethyl-1-(((R)-oxetan-2-yl)methyl)-1H-imidazol-5-yl)oxazole-4-carboxylic acid] | 118% | 0.0351 nM
C[C@]1(c2ccc(Cl)cc2F)Oc2cccc(C3CCN(Cc4nc(C(F)(F)F)c(-c5nc(C(=O)O)co5)n4C[C@@H]4CCO4)CC3)c2O1 [Compound C-4, 2-(2-((4-((S)-2-(4-chloro-2-fluorophenyl)-2-methylbenzo[d][1,3]dioxol-4-yl)piperidin-1-yl)methyl)-1-(((S)-oxetan-2-yl)methyl)-4-(trifluoromethyl)-1H-imidazol-5-yl)oxazole-4-carboxylic acid] | 120% | 0.298 nM
Cc1c(-c2nc(C(=O)O)co2)nc(CN2CCC(c3cccc4c3O[C@@](C)(c3ccc(Cl)cc3F)O4)CC2)n1C[C@@H]1CCO1 [Compound C-13, 2-(2-((4-((S)-2-(4-chloro-2-fluorophenyl)-2-methylbenzo[d][1,3]dioxol-4-yl)piperidin-1-yl)methyl)-5-methyl-1-(((S)-oxetan-2-yl)methyl)-1H-imidazol-4-yl)oxazole-4-carboxylic acid] | 102% | 0.376 nM
CCc1oc(-c2c(C)nc(CN3CCC(c4cccc5c4O[C@@](C)(c4ccc(Cl)cc4F)O5)CC3)n2C[C@@H]2CCO2)nc1C(=O)O [Compound C-10, 2-(2-((4-((S)-2-(4-chloro-2-fluorophenyl)-2-methylbenzo[d][1,3]dioxol-4-yl)piperidin-1-yl)methyl)-4-methyl-1-(((S)-oxetan-2-yl)methyl)-1H-imidazol-5-yl)-5-ethyloxazole-4-carboxylic acid] | 108% | 0.142 nM
Cc1c(-c2cc(C(=O)O)n(C)n2)nc(CN2CCC(c3cccc4c3O[C@@](C)(c3ccc(Cl)cc3F)O4)CC2)n1C[C@@H]1CCO1 [Compound C-17, 3-(2-((4-((S)-2-(4-chloro-2-fluorophenyl)-2-methylbenzo[d][1,3]dioxol-4-yl)piperidin-1-yl)methyl)-5-methyl-1-(((S)-oxetan-2-yl)methyl)-1H-imidazol-4-yl)-1-methyl-1H-pyrazole-5-carboxylic acid] | 113% | 0.754 nM
Cc1c(-c2ccc(C(=O)O)o2)nc(CN2CCC(c3cccc4c3O[C@@](C)(c3ccc(Cl)cc3F)O4)CC2)n1C[C@@H]1CCO1 [Compound C-24, 5-(2-((4-((S)-2-(4-chloro-2-fluorophenyl)-2-methylbenzo[d][1,3]dioxol-4-yl)piperidin-1-yl)methyl)-5-methyl-1-(((S)-oxetan-2-yl)methyl)-1H-imidazol-4-yl)furan-2-carboxylic acid] | 113% | 0.102 nM
Cc1oc(-c2nc(CN3CCC(c4cccc5c4O[C@@](C)(c4ccc(Cl)cc4F)O5)CC3)n(C[C@@H]3CCO3)c2C)nc1C(=O)O [Compound C-12, 2-(2-((4-((S)-2-(4-chloro-2-fluorophenyl)-2-methylbenzo[d][1,3]dioxol-4-yl)piperidin-1-yl)methyl)-5-methyl-1-(((S)-oxetan-2-yl)methyl)-1H-imidazol-4-yl)-5-methyloxazole-4-carboxylic acid] | 114% | 0.575 nM
Cc1c(-c2coc(C(=O)O)n2)nc(CN2CCC(c3cccc4c3O[C@@](C)(c3ccc(Cl)cc3F)O4)CC2)n1C[C@@H]1CCO1 [Compound C-18, 4-(2-((4-((S)-2-(4-chloro-2-fluorophenyl)-2-methylbenzo[d][1,3]dioxol-4-yl)piperidin-1-yl)methyl)-5-methyl-1-(((S)-oxetan-2-yl)methyl)-1H-imidazol-4-yl)oxazole-2-carboxylic acid] | 115% | 0.188 nM
Cc1nc(CN2CCC(c3cccc4c3O[C@@](C)(c3ccc(Cl)cc3F)O4)CC2)n(C[C@@H]2CCO2)c1-c1nc(C(=O)O)c(C)o1 [Compound C-1, 2-(2-((4-((S)-2-(4-chloro-2-fluorophenyl)-2-methylbenzo[d][1,3]dioxol-4-yl)piperidin-1-yl)methyl)-4-methyl-1-(((S)-oxetan-2-yl)methyl)-1H-imidazol-5-yl)-5-methyloxazole-4-carboxylic acid] | 110% | 0.056 nM
Cc1cc(-c2nc(CN3CCC(c4cccc5c4O[C@@](C)(c4ccc(Cl)cc4F)O5)CC3)n(C[C@@H]3CCO3)c2C)oc1C(=O)O [Compound C-19, 5-(2-((4-((S)-2-(4-chloro-2-fluorophenyl)-2-methylbenzo[d][1,3]dioxol-4-yl)piperidin-1-yl)methyl)-5-methyl-1-(((S)-oxetan-2-yl)methyl)-1H-imidazol-4-yl)-3-methylfuran-2-carboxylic acid] | 109% | 0.377 nM
